These results are taken from patent US8546086B2, “Use of neuregulin-β as an indicator and/or target” (Mind-NRG SA, priority 2000, dated 2013).

Holding throughout (assay type): cell-based, rat
For one test, the system named is Neuregulin-β. In words: 2-D-PAGE / MALDI-TOF-MS / ESI-MS of glutamate-induced changes in hippocampal proteins. As to conditions: for Quantity of Neu-β (32 kDa spot) in 2-D-PAGE: FIG. 4: B=glutamate, C=glutamate+MK-801 (10 μM MK-801). An excerpt: Hippocampal cells were stimulated with stimulation buffer (in mM): NaCl (125), KCL (5), CaCl2 (2-6), MgCl2 (0.8) glucose (5-10), HEPES (20), L-glutamate (0.01-0.1), glycine (0.01), bicucullin (0.01), pH 7.2; (A=control, B=glutamate, C=glutamate+MK-801; MK-801 is a specific glutamate receptor antagonist). In this connection, the measured or control quantity indicative of performance was a fluorescence signal measured using Fura-2, which signal is proportional to the calcium concentration (all the substances can be found in chemical catalogues supplied by Torris or Sigma).
Furthermore, proteins which change under the chosen experimental conditions, or otherwise behave in a conspicuous manner, are characterized and identified using the techniques of proteome research, namely by means of two-dimensional gel electrophoresis, MALDI-TOF-MS and ESI-MS.
Neuregulin-β was identified by means of two-dimensional PAGE using isoelectric focusing and employing immobilized, nonlinear pH gradients of from 3 to 10 and linear gradients of from 4 to 7 as the first dimension and SDS-PAGE (12% acrylamide) as the second dimension.
The protein was excised from the gels, subjected to a trypsin cleavage within the gel and subsequently [lacuna] mass-spectroscopically by means of MALDI-TOF mass fingerprint and ESI peptide sequencing (Corthals et al., Identification of Proteins by Mass-Spectrometry, in: Proteome Research, Two-Dimensional Gel-Electrophoresis and Identification Methods, Thierry Rabilloud, Ed., Springer, Berlin (2000), 197-232).
The identity of the protein was confirmed by analyzing selected peptides by means of MS/MS analysis using ion traps, electrospray, mass spectroscopy of the peptide mixture, which was not fractionated and which had previously been analyzed by MALDI-TOF. The MS/MS analysis of m/z 798.4 was sufficient in order, inter alia, to identify the 88-94 peptide of neuregulin-β. The MS/MS analysis of m/z=842.7 confirmed the sequence of the peptide around position 81-87. […]

Test [1] deals with hippocampal cells. Kind of test: Neurotransmitter (GABA) release in perfusate by fluorescence HPLC. As to conditions: hippocampal neurons, 100 μm glutamate for 30 seconds, +22° C.; control 87 pMol. The protocol: (§1) Suitable cell culture systems, in the case of neuregulin-β hippocampal primary cultures obtained from prenatal or neonatal rats (described in, for example, “Rat hippocampal neurons in low-density culture”, K. Goslin, H. Asmussen, G. Banker; in “Culturing Nerve Cells, 2nd edition 1998, pp. 339 ff; K. Goslin and G. Banker, eds. MIT Press, Cambridge, Mass., USA), are cultured on the above-described slides, introduced into the flow cell and initially characterized microscopically (morphological micrographs, etc. in the phase contrast microscope). […]
(§2) Almost in parallel to this, the perfusate is subjected to a synchronized fractionation and analysis; in the case of hippocampal neurons, of neurotransmitters, by means of HPLC using fluorescence detection, in the case of other low molecular weight extracellular components, by means of EMI-MS, and in the case of stable isotopic tracers and metal ions, by means of ICP-MS.
(§3) In the above-described set up, the following parameters were determined simultaneously or in an explicitly correlating manner. […] Accompanying this, are the simultaneous changes in the release of neurotransmitter (GABA), the influx of Mg into the cells, as detected using the stable isotopic tracer ^26Mg. […]

Test [2] deals with hippocampal cells. In words: Fura-2 fluorescence imaging of intracellular calcium after glutamate stimulation in flow cell. As to conditions: hippocampal neurons.
Description: Hippocampal cells were stimulated with stimulation buffer (in mM): NaCl (125), KCL (5), CaCl2 (2-6), MgCl2 (0.8) glucose (5-10), HEPES (20), L-glutamate (0.01-0.1), glycine (0.01), bicucullin (0.01), pH 7.2; (A=control, B=glutamate, C=glutamate+MK-801; MK-801 is a specific glutamate receptor antagonist). In this connection, the measured or control quantity indicative of performance was a fluorescence signal measured using Fura-2, which signal is proportional to the calcium concentration (all the substances can be found in chemical catalogues supplied by Torris or Sigma). […]
The fluorescence signals in a larger number of cells are detected, in a time-resolved manner, in dependence on the stimulation conditions (temperature, active compound).
as §3
In general terms: Calcium flux is commonly read through the fluorescence of an indicator in the cells.

Test [3] deals with hippocampal cells. Kind of test: Intracellular 26Mg stable isotopic tracer by ICP-MS. As to conditions: hippocampal neurons, 100 μm glutamate for 30 seconds, +22° C.; control 25 nM/mg of protein. The method, then: as §1, §2, §3

For `C[C@]12N[C@H](Cc3ccccc31)c1ccccc12` [MK-801], the “Quantity of Neu-β (32 kDa spot) in 2-D-PAGE” value with Neuregulin-β is recorded as “only weakly present, or cannot be found at all”.
As to `N[C@@H](CCC(=O)O)C(=O)O` [glutamate, L-glutamate], the “GABA measured quantity (prestimulated)” value with hippocampal cells [1] came to 74 pmol. Besides, the “Quantity of Neu-β (32 kDa spot) in 2-D-PAGE” value in the test with Neuregulin-β is reported as “substantially larger quantity”. Also, the “Neuregulin-β expression (prestimulated)” value with Neuregulin-β (hippocampal neurons, glutamate stimulated, control not expressed) is recorded as “Strongly”. Moreover, the “Calcium (intracellular) concentration (prestimulated)” value with hippocampal cells [2] (100 μm glutamate for 30 seconds, +22° C., control 350 nM) turned out to be 850 nM. In addition, the “Calcium inflow (Fura-2)” value in the test on hippocampal cells [2] (qualitative) is recorded as “induces an inflow of calcium ions”. For the same compound, in the test with hippocampal cells [3], the “26Mg (intracellular) concentration (prestimulated)” value is given as 45 nM/mg of nM/mg of protein.
